Results: ChEMBL document CHEMBL6087388, “Hydrogen peroxide responsive theranostics for cancer-selective activation of DNA alkylators and real-time fluorescence monitoring in living cells” (Eur J Med Chem, 2024)

Assays:
MCF-10A [1] = test: Induction of DNA damage in human MCF-10A cells at 10 uM incubated for 48 hrs by Alkaline comet based EVOS digital inverted microscopic analysis; type: toxicity, cell-based
[2] = Drug localization in mitochondria of human MDA-MB-468 cells assessed as blue fluorescence at 5 uM incubated for 2 hrs by MitoTracker Red CMXRos based confocal microscopic analysis; type: ADME; conditions: mda-mb-468, 2 h
[3] = Drug localization in mitochondria of human MDA-MB-468 cells assessed as fluorescence at 5 uM pretreated with paraquat for […] by MitoTracker Red CMXRos based confocal microscopic analysis; type: ADME; conditions: time 1.5 hrs
[4] = Drug localization in mitochondria of human MDA-MB-468 cells assessed as accumulation of compound in mitochondria at 5 uM incubated for 0.5 hrs and measured after […] by MitoTracker Red CMXRos based confocal microscopic analysis; type: ADME; conditions: mda-mb-468, 2 h
[5] = Drug localization in nucleus of human MDA-MB-468 cells assessed as accumulation of compound in nucleus at 5 uM pretreated with paraquat for 10 hrs followed by compound addition and measured after […] by SYTO 9 or Hoechst 33342 staining based confocal microscopic analysis; type: ADME, subcellular; conditions: mda-mb-468, 10 h
[6] = Drug localization in nucleus of human MDA-MB-468 cells assessed as accumulation of compound in nucleus at 5 uM incubated for 0.5 hrs and measured after […] by SYTO 9 or Hoechst 33342 staining based confocal microscopic analysis; type: ADME, subcellular; conditions: mda-mb-468, 2 h
MCF-10A [7] = test: Induction of DNA damage in human MCF-10A cells at 5 uM incubated for 48 hrs by Alkaline comet based EVOS digital inverted microscopic analysis; type: toxicity, cell-based
[8] = Photophysical property of the compound assessed as relative quantum yield at 2 uM in PBS and DMSO relative to quinine sulfate; type: physicochemical; conditions: buffer

Row | SMILES | Activity (MCF-10A [1]) | Drug uptake [2] | Drug uptake [3] | Drug uptake [4] | Drug uptake [5] | Drug uptake [6] | Activity (MCF-10A [7]) | Activity [8]
1 | CC1(C)OB(c2ccc3cc(-n4cc(CCCCCCCCCOCc5cc(N(CCCl)CCCl)ccc5B5OC(C)(C)C(C)(C)O5)nn4)c(=O)oc3c2)OC1(C)C | Non-toxic | Not_active | Active | Active | Not_active | Not_active |  | 
2 | CC1(C)OB(c2ccc3c(c2)Oc2cc(B4OC(C)(C)C(C)(C)O4)ccc2C32OC(=O)c3cc(-n4cc(CCCCCCCCCOCc5cc(N(CCCl)CCCl)ccc5B5OC(C)(C)C(C)(C)O5)nn4)ccc32)OC1(C)C |  | Not_active | Active | Active | Not_active | Not_active |  | 
3 | CC1(C)OB(c2ccc(N(CCCl)CCCl)cc2COCc2cn(-c3cc4ccc(O)cc4oc3=O)nn2)OC1(C)C |  | Active |  |  |  | Not_active | Non-toxic | 0.17
